This note sets out measurements from the Kinase Knowledgebase extract (Sharma et al. 2016).

One assay deals with PIK3CA (human) (UniProt P42336).
For a further assay, the target named is PIK3CB (Human) (UniProt P42338).
PIK3CB (Human), sequence (P42338 whole entry, looked up): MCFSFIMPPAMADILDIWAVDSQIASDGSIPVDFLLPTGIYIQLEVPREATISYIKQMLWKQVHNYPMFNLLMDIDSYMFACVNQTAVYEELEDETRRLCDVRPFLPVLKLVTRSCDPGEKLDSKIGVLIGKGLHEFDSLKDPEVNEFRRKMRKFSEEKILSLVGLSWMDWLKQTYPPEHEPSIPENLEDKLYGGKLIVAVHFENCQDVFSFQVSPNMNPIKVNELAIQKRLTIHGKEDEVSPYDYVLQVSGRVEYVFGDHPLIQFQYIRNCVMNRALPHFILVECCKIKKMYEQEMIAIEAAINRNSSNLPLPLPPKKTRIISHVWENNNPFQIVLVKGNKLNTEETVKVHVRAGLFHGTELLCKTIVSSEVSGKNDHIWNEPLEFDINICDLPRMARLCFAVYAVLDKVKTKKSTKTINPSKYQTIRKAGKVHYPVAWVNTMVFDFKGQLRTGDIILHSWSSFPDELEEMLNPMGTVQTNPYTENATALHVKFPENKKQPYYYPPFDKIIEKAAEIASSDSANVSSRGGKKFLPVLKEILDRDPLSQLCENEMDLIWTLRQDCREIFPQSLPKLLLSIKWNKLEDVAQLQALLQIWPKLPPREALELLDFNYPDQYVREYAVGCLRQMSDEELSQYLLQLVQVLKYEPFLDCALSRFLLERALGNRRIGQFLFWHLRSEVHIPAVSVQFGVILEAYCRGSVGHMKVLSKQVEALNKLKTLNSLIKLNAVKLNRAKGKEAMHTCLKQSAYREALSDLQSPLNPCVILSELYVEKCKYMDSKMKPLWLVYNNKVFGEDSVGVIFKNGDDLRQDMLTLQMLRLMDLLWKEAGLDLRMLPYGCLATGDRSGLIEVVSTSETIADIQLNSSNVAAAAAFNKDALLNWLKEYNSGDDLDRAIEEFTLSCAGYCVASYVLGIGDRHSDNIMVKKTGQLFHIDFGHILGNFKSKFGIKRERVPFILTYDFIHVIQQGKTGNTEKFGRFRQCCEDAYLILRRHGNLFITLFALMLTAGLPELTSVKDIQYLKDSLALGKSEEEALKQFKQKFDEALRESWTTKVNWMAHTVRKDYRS

PIK3CA (human), sequence (P42336 whole entry, looked up): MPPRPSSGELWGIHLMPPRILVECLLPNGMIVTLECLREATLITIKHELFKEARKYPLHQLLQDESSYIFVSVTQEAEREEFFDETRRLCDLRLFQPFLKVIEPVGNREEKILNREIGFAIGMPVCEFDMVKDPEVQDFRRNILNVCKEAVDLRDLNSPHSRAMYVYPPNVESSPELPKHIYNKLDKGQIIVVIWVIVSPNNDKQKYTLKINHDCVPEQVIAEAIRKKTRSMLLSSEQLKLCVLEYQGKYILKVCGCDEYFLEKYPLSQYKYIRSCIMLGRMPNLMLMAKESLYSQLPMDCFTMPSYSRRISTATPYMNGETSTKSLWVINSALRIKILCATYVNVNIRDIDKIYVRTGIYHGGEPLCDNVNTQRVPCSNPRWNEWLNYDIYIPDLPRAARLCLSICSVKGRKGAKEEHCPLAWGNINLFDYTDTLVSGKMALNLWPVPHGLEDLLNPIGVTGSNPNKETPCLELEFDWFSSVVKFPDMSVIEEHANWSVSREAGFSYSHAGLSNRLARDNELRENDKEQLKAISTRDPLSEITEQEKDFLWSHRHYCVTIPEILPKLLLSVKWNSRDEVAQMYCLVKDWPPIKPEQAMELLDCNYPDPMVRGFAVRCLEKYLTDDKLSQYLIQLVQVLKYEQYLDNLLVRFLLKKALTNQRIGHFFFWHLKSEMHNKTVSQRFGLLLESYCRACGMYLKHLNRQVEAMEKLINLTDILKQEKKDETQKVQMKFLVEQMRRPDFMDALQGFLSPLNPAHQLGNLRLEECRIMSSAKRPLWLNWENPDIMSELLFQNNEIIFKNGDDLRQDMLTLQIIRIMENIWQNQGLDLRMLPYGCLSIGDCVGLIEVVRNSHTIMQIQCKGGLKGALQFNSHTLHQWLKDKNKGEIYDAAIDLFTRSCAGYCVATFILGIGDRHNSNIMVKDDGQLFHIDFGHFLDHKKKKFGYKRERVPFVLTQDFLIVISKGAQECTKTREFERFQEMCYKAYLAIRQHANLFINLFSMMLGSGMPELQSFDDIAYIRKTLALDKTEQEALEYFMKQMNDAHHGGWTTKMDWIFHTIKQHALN

For the compound `Cc1ccc(S(=O)(=O)NCC(C)(C)O)cc1-c1cnc(N)c(-c2cnc(C3CC3)o2)c1`, the IC50 against PIK3CA (human) was 280 nM; on PIK3CB (Human), 1300 nM.

A word on the IC50: it is the concentration at which inhibition is half-maximal.
